Experimental data: patent publication US20050222225A1, “Use of compounds for increasing spermatozoa motility” (APPLIED RESEARCH SYSTEMS ARS HOLDING NV, priority 2002, published 2005)
pIC50: −log10 of the molar value.

Key:
[1] = target: Human recombinant GST-PI3Kγ (Homo sapiens, UniProt P48736); assay: High Throughput PI3K Lipid Kinase Assay (scintillation proximity assay, neomycin-coated beads); type: biochemical
Description: A. a) High Throughput PI3K Lipid Kinase Assay (Binding Assay):
The assay combines the scintillation proximity assay technology (SPA, Amersham) with the capacity of neomycin (a polycationic antibiotic) to bind phospholipids with high affinity and specificity. The Scintillation Proximity Assay is based on the properties of weakly emitting isotopes (such as ^3H, ^125I, ^33P). Coating SPA beads with neomycin allows the detection of phosphorylated lipid substrates after incubation with recombinant PI3K and radioactive ATP in the same well, by capturing the radioactive phospholipids to the SPA beads through their specific binding to neomycin.
To a 384 wells MTP containing 5 μl of the test compound of formula (I) (solubilized in 6% DMSO; to yield a concentration of 100, 30, 10, 3, 1, 0.3, 0.1, 0.03, 0.01, 0.001 μM of the test compound), the following assay components are added. 1) 5 μl (58 ng) of Human recombinant GST-PI3Kγ (in Hepes 40 mM, pH 7.4, DTT 1 mM and ethylenglycol 5%) 2) 10 μl of lipid micelles and 3) 10 μl of Kinase buffer ([^33P]ATP 45 μM/60 nCi, MgCl2 30 mM, DTT 1 mM, β-Glycerophosphate 1 mM, Na3VO4 100 μM, Na Cholate 0.3%, in Hepes 40 mM, pH 7.4). […] After precipitation of the neomycin-coated PVT SPA beads for 5 minutes at 1500×g, radioactive PtdIns(3)P is quantified by scintillation counting in a Wallac MicroBeta™ plate counter. […]

[2] = tested on: C5a-mediated AKT phosphorylation in Raw 264-7 macrophages; assay: Cell based ELISA: Akt/PKB phosphorylation in macrophages after stimulation with C5a; settings: Mus musculus, 50 nM C5a; for inhibition at 1 µM: RAW264.7, compound at 1 μM; for inhibition at 10 µM: RAW264.7, compound at 10 μM
Description: b) Cell Based ELISA to Monitor PI3K Inhibition: Measurement of Akt/PKB phosphorylation in macrophages after stimulation with C5a: Raw 264: Raw 264-7 macrophages (cultured in DMEM-F12 medium containing 10% Fetal Calf serum and antibiotics) are plated at 20'000 cells/well in a 96 MTP 24 h before cell stimulation. Previous to the stimulation with 50 nM of Complement 5a (C5a; which is a well known chemokine which stimulates the used cells) during 5 minutes, Cells are serum starved for 2 h, and pretreated with inhibitors for 20 minutes. After stimulation cells are fixed in 4% formaldehyde for 20 minutes and washed 3 times in PBS containing 1% Triton X-100 (PBS/Triton). Endogenous peroxidase is blocked by a 20 minutes incubation in 0.6% H2O2 and 0.1% Sodium Azide in PBS/Triton and washed 3 times in PBS/Triton. Cells are then blocked by 60 minutes incubation with 10% fetal calf serum in PBS/Triton. Next, phosphorylated Akt/PKB is detected by an overnight incubation at 4° C. with first antibody (anti phospho Serine 473 Akt IHC, Cell Signaling) diluted 800-fold in PBS/Triton, containing 5% bovine serum albumin (BSA). After 3 washes in PBS/Triton, cells are incubated for 60 minutes with a peroxidase conjugated goat-anti-rabbit antibody (1/400 dilution in PBS/Triton, containing 5% BSA), washed 3 times in PBS/Triton, and 2 times in PBS and further incubated in 100 μl of substrate reagent solution (R&D) for 20 minutes. The reaction is stopped by addition of 50 μl of 1 M H2SO4 and absorbance is read at 450 nm. The values indicated reflect the percentage of inhibition of AKT phoshorylation as compared to basal level. Said values show a clear effect of the azolidinone-vinyl fused-benzene compounds on the activation of AKT phosphorylation in macrophages.

spermatozoa = assay: Sperm cell parameters by computer aided sperm analysis (CASA); type: cell-based, human; settings: 10 μM; sperm samples from oligo-asthenospermic subjects; vs control sample
Text: In the experiments the following examples are based on, standard methods of in vitro fertilization have been used. With regard to the details of these methods, reference is made to the “WHO manual” (WHO laboratory manual for the examination of human semen and sperm-cervical mucus interactions, 4th edition, Cambridge University Press 1999). In particular, the direct swim-up method can be taken from pp. 104 to 106 of this manual.
b) Effect of Example 1 Compound on Further Sperm Cell Parameters:
These parameters are determined by computer aided sperm analysis (CASA) in sperm samples from different oligo-asthenospermic subjects.

Human recombinant GST-PI3Kγ, sequence (P48736 whole entry): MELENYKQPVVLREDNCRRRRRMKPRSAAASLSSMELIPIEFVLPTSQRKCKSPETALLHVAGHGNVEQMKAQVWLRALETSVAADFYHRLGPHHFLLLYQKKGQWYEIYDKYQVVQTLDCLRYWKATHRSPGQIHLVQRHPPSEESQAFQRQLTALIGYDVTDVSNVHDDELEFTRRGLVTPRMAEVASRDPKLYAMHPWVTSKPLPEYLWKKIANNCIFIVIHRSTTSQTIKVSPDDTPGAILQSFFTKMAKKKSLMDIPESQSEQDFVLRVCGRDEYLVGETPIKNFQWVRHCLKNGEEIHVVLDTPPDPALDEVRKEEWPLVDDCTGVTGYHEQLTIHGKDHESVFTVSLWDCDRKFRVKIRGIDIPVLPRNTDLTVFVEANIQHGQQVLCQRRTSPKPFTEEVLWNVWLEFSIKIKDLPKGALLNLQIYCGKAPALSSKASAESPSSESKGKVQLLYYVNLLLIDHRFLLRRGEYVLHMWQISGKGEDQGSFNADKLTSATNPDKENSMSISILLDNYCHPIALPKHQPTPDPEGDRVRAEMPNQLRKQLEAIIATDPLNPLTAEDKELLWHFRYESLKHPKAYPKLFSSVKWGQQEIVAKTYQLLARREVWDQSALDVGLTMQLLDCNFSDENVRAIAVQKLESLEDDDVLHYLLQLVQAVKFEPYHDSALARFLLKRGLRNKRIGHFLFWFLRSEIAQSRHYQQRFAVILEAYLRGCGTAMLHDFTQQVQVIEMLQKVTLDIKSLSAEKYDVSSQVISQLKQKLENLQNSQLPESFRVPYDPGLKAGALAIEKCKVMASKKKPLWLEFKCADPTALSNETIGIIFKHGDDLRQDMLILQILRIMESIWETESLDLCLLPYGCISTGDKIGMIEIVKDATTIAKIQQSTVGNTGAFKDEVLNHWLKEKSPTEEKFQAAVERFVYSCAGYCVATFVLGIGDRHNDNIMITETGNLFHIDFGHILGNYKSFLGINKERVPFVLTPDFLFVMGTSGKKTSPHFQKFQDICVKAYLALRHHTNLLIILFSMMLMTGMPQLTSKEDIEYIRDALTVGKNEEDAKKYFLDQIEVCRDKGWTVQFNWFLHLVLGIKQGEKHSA

In the case of `N=C1NC(=O)/C(=C/c2ccc3ncnc(N4CCCCC4)c3c2)S1` [Example 41, 2-Imino-5-(4-piperidine-quinazolin-6-ylmethylene)-thiazolidin-4-one], the pIC50 [1] was > 6.00.

`O=C1NC(=O)C(=Cc2ccc3ncnc(N4CCCCC4)c3c2)S1` [Example 19, 5-[(4-piperidin-1-ylquinazolin-6-yl)methylene]-1,3-thiazolidine-2,4-dione] gave an inhibition at 1 µM [2] of 95% and an inhibition at 10 µM [2] of ~100%.

`N=C1NC(=O)/C(=C/c2ccc3nccnc3c2)S1` [Example 66, 2-Imino-5-quinoxalin-6-ylmethylene-thiazolidin-4-one] showed an inhibition at 10 µM [2] of ~100%.

In the case of `O=C1NC(=O)/C(=C/c2ccc3c(c2)OCO3)S1` [Example 1, 5-(1,3-benzodioxol-5-ylmethylene)-1,3-thiazolidine-2,4-dione], the “average path velocity (VAP)” value (spermatozoa) was “increased in a statistically significant manner”, the “hyper-activated sperm fraction (HA)” value (spermatozoa) was “increased in a statistically significant manner” and the “percentage curvilinear velocity (VCL)” value (spermatozoa) was “increased in a statistically significant manner”. For the same molecule, the “straight-line velocity (VSL)” value (spermatozoa) was “increased in a statistically significant manner” and the inhibition at 10 µM [2] was ~100%.

`CN(C)c1ncnc2ccc(/C=C3\SC(=O)NC3=O)cc12` [Example 17, 5-(4-Dimethylamino-quinazolin-6-ylmethylene)-thiazolidine-2,4-dione] gave an inhibition at 1 µM [2] of 95%.

In the case of `O=C1NC(=O)/C(=C/c2ccc3nsnc3c2)S1` [Example 107, 5-Benzo[1,2,5]thiadiazol-5-ylmethylene-thiazolidine-2,4-ione], the pIC50 [1] was > 6.00 and the inhibition at 10 µM [2] was ~100%.

`O=C1NC(=O)/C(=C/c2ccc3occ(/C=C/C(=O)N4CCCCC4)c3c2)S1` [Example 73, 5-[3-(3-Oxo-3-piperidin-1-yl-propenyl)-benzofuran-5-ylmethylene]-thiazolidine-2,4-dione] showed an inhibition at 1 µM [2] of 95%.
